Results on twelve compounds are retold here after patent publication US20250243203A1, “NICOTINAMIDE- AND BENZAMIDE-BASED COMPOUNDS, CONJUGATES, AND COMPOSITIONS AS INHIBITORS OF TRANSLATIONAL- AND TRANSCRIPTIONAL-RELATED KINASES” (PURDUE RESEARCH FOUNDATION, priority 2022, published 2025).

The test system of one data set is CT-26 C2 tumor cells. As to the kind of experiment: CT-26 in vivo tumor reduction. To be noted: CT-26, day 17 from start of dosing, oral QD. Also on record: species or system BALB/c female mouse. The procedure: Each BALB/c female mouse was inoculated subcutaneously at the right flank with CT-26 C2 tumor cells (0.3×10^6/mouse) in 0.1 mL PBS for tumor development. Treatments for the efficacy study were started on day 10 after tumor inoculation when the average tumor size reached approximately 71 mm^3. Each group consisted of 6 tumor-bearing mice. Vehicle control was 25 mM citrate buffer (pH 2.5). HSND80 was dosed orally QD at 15 mg/Kg for 4 days and 10 mg/Kg afterwards. HSND100 was dosed at 15 mg/Kg. Mice were dosed 5 days on and 2 days off (drug holiday). Tumors were measured every other day (L, W, H) to give tumor volume in mm^3.

Data set [1] deals with MDA-MB-231 (breast cancer). Kind of data set: Growth inhibition of MDA-MB-231 (NCI-60 human tumor cell line screen). In kind it is cell-based. To be noted: NCI-60 screening.
The target in another data set is p70S6K (Homo sapiens, UniProt P23443). As to the kind of experiment: p70S6K inhibition, in vitro studies at Reaction Biology Corporation. In kind it is biochemical. Particulars: 25 nM compound, [ATP]=10 uM. Here is the method: The nature of the substituent on the imidazo[1,2-b]pyridazine moiety at position-6 was evaluated in in vitro studies performed at Reaction Biology Corporation (Malvern, PA). The results indicated the specific substituent dramatically affected the inhibition of p70S6K.

The target in a further data set is MNK2 (Homo sapiens, UniProt Q9HBH9). Kind of data set: MNK2 inhibition, in vitro studies at Reaction Biology Corporation. It counts as biochemical. Particulars: 50 nM compound, 10 uM ATP.
Data set [2] concerns the target T1, AXL receptor tyrosine kinase (AXL) (Homo sapiens, UniProt P30530).
T1 construct: purchased Eurofins DiscoverX (KINOMEscan service)
T1 sequence (P30530 26-894): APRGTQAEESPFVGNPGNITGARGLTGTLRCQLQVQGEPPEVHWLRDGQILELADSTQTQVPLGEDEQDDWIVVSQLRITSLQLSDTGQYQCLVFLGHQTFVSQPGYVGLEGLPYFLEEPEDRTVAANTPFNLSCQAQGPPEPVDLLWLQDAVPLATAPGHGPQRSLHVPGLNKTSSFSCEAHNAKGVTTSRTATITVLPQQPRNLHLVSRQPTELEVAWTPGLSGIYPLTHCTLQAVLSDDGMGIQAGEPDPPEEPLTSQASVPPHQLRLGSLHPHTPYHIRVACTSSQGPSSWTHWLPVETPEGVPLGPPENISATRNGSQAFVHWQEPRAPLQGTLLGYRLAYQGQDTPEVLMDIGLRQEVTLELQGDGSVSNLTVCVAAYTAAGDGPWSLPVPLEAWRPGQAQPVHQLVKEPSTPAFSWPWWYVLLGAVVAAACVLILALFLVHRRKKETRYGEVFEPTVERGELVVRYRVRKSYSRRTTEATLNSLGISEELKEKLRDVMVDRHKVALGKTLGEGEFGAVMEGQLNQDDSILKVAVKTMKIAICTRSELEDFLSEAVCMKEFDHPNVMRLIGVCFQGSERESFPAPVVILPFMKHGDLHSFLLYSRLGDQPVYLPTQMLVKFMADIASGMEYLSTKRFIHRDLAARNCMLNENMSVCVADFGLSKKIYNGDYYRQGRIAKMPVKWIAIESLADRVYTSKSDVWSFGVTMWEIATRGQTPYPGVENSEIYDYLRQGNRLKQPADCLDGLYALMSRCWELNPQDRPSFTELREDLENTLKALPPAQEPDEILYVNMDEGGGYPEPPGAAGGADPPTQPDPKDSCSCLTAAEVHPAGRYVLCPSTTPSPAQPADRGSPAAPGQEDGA
Kind of data set: KINOMEscan competition binding assay (Eurofins DiscoverX), AXL. The procedure: The affinity of several compounds hereof having a substituent on the imidazo[1,2-b]pyridazine moiety at position-6, wherein the substituent comprised one or more ring moieties was evaluated with respect to two TAM kinases: AXL and MERTK. […] The assay uses DNA-tagged kinase, an immobilized ligand, and the test compound. Quantitative polymerase chain reaction (PCR) of the DNT tag was then used to measure the ability of the tested compound to displace the immobilized ligand.

In data set [3] the target is T2, MER Proto-Oncogene tyrosine kinase (MERTK) (Homo sapiens, UniProt Q12866).
T2 construct: purchased Eurofins DiscoverX (KINOMEscan service)
T2 sequence (Q12866 21-999): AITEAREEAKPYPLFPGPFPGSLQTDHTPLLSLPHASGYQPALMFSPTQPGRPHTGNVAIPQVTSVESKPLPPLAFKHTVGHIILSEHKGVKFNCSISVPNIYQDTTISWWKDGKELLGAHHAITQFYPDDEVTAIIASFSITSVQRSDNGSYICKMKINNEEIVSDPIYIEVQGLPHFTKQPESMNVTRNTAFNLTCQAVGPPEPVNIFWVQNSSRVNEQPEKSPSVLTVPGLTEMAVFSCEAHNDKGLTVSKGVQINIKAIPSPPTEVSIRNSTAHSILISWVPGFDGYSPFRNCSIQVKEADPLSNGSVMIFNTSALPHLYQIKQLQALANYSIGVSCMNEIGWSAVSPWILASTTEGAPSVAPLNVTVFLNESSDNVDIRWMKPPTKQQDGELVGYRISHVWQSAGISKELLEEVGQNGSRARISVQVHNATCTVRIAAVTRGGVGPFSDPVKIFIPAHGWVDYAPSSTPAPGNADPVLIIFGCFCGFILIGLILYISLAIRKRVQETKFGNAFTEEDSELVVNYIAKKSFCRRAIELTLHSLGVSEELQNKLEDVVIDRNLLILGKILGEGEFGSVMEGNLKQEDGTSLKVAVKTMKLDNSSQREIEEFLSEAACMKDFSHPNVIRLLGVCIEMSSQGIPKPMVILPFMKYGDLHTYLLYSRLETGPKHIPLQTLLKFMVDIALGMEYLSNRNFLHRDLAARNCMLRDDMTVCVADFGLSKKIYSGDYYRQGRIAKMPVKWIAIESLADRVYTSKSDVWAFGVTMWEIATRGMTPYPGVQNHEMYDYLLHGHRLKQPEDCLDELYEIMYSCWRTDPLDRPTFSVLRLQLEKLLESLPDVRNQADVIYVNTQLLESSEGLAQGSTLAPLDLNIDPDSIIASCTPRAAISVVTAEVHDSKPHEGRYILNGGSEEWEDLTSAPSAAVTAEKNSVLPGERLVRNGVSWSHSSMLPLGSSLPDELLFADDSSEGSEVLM
As to the kind of experiment: KINOMEscan competition binding assay (Eurofins DiscoverX), MERTK. Here is the method: The affinity of several compounds hereof having a substituent on the imidazo[1,2-b]pyridazine moiety at position-6, wherein the substituent comprised one or more ring moieties was evaluated with respect to two TAM kinases: AXL and MERTK. Perhaps more specifically, the equilibrium dissociation constant between each of compounds HSND141, compound HSND149, HSND150, HSND151, and HSND80 and AXL and MERTK was evaluated at Eurofins DiscoverX using KINOMEscan™, which is a competition binding assay that quantitively measured the ability of each tested compound to displace an immobilized, active-site directed ligand. The assay uses DNA-tagged kinase, an immobilized ligand, and the test compound. Quantitative polymerase chain reaction (PCR) of the DNT tag was then used to measure the ability of the tested compound to displace the immobilized ligand.

The conditions of data set [4]: patients on ponatinib; cited from earlier work.
[5] abbreviates: Table 1, DiscoverX Eurofins, read-out: Kd AXL.
Where [6] appears, read: Table 1, DiscoverX Eurofins, read-out: Kd MERTK.

Read-outs that look alike come from different tables or passages of the source.

The term GI50 denotes the concentration at which growth is held to half of that of the control. A higher GI50 goes with lower sensitivity of the cells. The inhibition is the change of the read-out against control, counted positive when it falls. The Kd is the equilibrium constant for the complex coming apart.

p70S6K, sequence (P23443 whole entry): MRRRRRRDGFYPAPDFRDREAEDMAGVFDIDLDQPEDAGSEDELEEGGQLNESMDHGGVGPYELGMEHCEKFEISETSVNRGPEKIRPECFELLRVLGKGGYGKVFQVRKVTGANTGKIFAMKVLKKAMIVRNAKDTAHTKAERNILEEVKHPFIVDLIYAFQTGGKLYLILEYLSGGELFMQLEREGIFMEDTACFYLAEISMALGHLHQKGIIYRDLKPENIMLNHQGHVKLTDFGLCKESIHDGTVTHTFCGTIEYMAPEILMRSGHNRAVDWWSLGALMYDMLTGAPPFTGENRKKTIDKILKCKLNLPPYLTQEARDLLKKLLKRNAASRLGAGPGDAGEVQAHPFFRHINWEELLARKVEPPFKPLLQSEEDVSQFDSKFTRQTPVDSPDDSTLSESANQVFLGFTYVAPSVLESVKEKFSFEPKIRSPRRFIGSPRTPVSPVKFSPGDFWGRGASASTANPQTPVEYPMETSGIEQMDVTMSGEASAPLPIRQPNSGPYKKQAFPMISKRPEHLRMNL
MNK2, sequence (Q9HBH9 whole entry): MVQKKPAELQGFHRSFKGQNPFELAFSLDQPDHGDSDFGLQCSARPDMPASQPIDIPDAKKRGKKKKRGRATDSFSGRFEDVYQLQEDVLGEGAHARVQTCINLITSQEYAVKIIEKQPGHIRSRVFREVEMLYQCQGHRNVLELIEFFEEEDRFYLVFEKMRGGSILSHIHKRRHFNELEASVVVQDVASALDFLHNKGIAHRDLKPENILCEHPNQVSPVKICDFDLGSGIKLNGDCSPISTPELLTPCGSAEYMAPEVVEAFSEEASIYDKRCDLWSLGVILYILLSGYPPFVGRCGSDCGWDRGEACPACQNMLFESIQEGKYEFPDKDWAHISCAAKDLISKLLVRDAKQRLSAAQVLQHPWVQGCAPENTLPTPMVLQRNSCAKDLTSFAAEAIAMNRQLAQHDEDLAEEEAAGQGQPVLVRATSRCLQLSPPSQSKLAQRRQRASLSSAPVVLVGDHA

Regarding `CC1CN(c2ccc3ncc(C#Cc4cncc(C(=O)Nc5ccc(CN6CCN(C)CC6)c(C(F)(F)F)c5)c4)n3n2)C[C@@H](C)O1` (stereo in doubt) [HSND100, 5-((6-((2R,6R)-2,6-Dimethylmorpholino)imidazo[1,2-b]pyridazin-3-yl)ethynyl)-N-(4-((4-methylpiperazin-1-yl)methyl)-3-(trifluoromethyl)phenyl)nicotinamide], the “tumor reduction compared to vehicle control” value in the data set on CT-26 C2 tumor cells turned out to be 36%.
With `CN1CCN(Cc2ccc(NC(=O)c3cncc(C#Cc4cnc5ccc(N)nn45)c3)cc2C(F)(F)F)CC1` [HSND37, 5-((6-Aminoimidazo[1,2-b]pyridazin-3-yl)ethynyl)-N-(4-((4-methylpiperazin-1-yl)methyl)-3-(trifluoromethyl)phenyl)nicotinamide], it took 413 nM to inhibit growth in data set [1] by half (GI50).
The same measure, in the same setting: the figure for `CN(C)CCNc1ccc2ncc(C#Cc3cncc(C(=O)Nc4ccc(CN5CCN(C)CC5)c(C(F)(F)F)c4)c3)n2n1` [HSND39, 5-((6-((2-(Dimethylamino)ethyl)amino)imidazo[1,2-b]pyridazin-3-yl)ethynyl)-N-(4-((4-methylpiperazin-1-yl)methyl)-3-(trifluoromethyl)phenyl)nicotinamide] is 571 nM; for `CN(C)CCN(C)c1ccc2ncc(C#Cc3cncc(C(=O)Nc4ccc(CN5CCN(C)CC5)c(C(F)(F)F)c4)c3)n2n1` [HSND40, 5-((6-((2-(Dimethylamino)ethyl)(methyl)amino)imidazo[1,2-b]pyridazin-3-yl)ethynyl)-N-(4-((4-methylpiperazin-1-yl)methyl)-3-(trifluoromethyl)phenyl)nicotinamide] it is 889 nM.
The same measure, in the same setting: the figure for `CN1CCN(Cc2ccc(NC(=O)c3cncc(C#Cc4cnc5ccc(N6CCOCC6)nn45)c3)cc2C(F)(F)F)CC1` [HSND41, N-(4-((4-Methylpiperazin-1-yl)methyl)-3-(trifluoromethyl)phenyl)-5-((6-morpholinoimidazo[1,2-b]pyridazin-3-yl)ethynyl)nicotinamide] is 35 nM.
On to `CN1CCN(Cc2ccc(NC(=O)c3cncc(C#Cc4cnc5ccc(N6CCN(C)CC6)nn45)c3)cc2C(F)(F)F)CC1` [HSND77, 5-((6-(4-Methylpiperazin-1-yl)imidazo[1,2-b]pyridazin-3-yl)ethynyl)-N-(4-((4-methylpiperazin-1-yl)methyl)-3-(trifluoromethyl)phenyl)nicotinamide], for which the “inhibition of p70S6K” value against p70S6K is 95%. Besides, at MNK2, testing at 0.05 µM gave an inhibition of 92%.
In the same order, the values of `CN1CCN(Cc2ccc(NC(=O)c3cncc(C#Cc4cnc5ccc(N6CCSCC6)nn45)c3)cc2C(F)(F)F)CC1` [HSND79, N-(4-((4-Methylpiperazin-1-yl)methyl)-3-(trifluoromethyl)phenyl)-5-((6-thiomorpholinoimidazo[1,2-b]pyridazin-3-yl)ethynyl)nicotinamide] are 95% and 94%.
For the compound `CN1CCN(Cc2ccc(NC(=O)c3cncc(C#Cc4cnc5ccc(N6C7CCC6COC7)nn45)c3)cc2C(F)(F)F)CC1` [HSND141, 5-((6-(3-Oxa-8-azabicyclo[3.2.1]octan-8-yl)imidazo[1,2-b]pyridazin-3-yl)ethynyl)-N-(4-((4-methylpiperazin-1-yl)methyl)-3-(trifluoromethyl)phenyl)nicotinamide], the Kd in data set [2] came out at 1.2 nM; in data set [3] it was 0.22 nM.
`CN1CCN(Cc2ccc(NC(=O)c3cncc(C#Cc4cnc5ccc(N6CC7(COC7)C6)nn45)c3)cc2C(F)(F)F)CC1` [HSND149, 5-((6-(2-Oxa-6-azaspiro[3.3]heptan-6-yl)imidazo[1,2-b]pyridazin-3-yl)ethynyl)-N-(4-((4-methylpiperazin-1-yl)methyl)-3-(trifluoromethyl)phenyl)nicotinamide]: the Kd in data set [2] (setting [5]) was 3.7 nM; in data set [3] (setting [6]), 0.2 nM.
The like results for `CN1CCN(Cc2ccc(NC(=O)c3cncc(C#Cc4cnc5ccc(N6C[C@H]7C[C@@H]6CO7)nn45)c3)cc2C(F)(F)F)CC1` [HSND150, 5-((6-((1R,4R)-2-Oxa-5-azabicyclo[2.2.1]heptan-5-yl)imidazo[1,2-b]pyridazin-3-yl)ethynyl)-N-(4-((4-methylpiperazin-1-yl)methyl)-3-(trifluoromethyl)phenyl)nicotinamide] were, in that order, 2.8 nM and less than 0.17 nM.
The like results for `CN1CCN(Cc2ccc(NC(=O)c3cncc(C#Cc4cnc5ccc(N6C[C@@H]7C[C@H]6CO7)nn45)c3)cc2C(F)(F)F)CC1` [HSND151, 5-((6-((1S,4S)-2-Oxa-5-azabicyclo[2.2.1]heptan-5-yl)imidazo[1,2-b]pyridazin-3-yl)ethynyl)-N-(4-((4-methylpiperazin-1-yl)methyl)-3-(trifluoromethyl)phenyl)nicotinamide] were, in that order, 3.3 nM and less than 0.17 nM.
In the case of `Cc1ccc(C(=O)Nc2ccc(CN3CCN(C)CC3)c(C(F)(F)F)c2)cc1C#Cc1cnc2cccnn12` [ponatinib, Ponatinib, reference compound], the “inhibition of p70S6K” value against p70S6K worked out at 38%. In data set [4], the “patients developing some form of thrombosis” value is listed as “about 40%”.
